pEC50: −log10 of the molar value.
Each compound was assayed against T1, soluble guanylate cyclase (human GUCYA3/GUCYB3) overexpressed in CHO cells (Homo sapiens, UniProt Q02108+Q02153) (assay: CHO cellular assay (cGMP production, HTRF)). Conditions: CHO K1 clone 8E10 overexpressing human sGC, Cisbio HTRF, 1 h room temperature, 1 mM IBMX, 20 uM ODQ, minimum quantification limit 0.5 nM.
T1 construct: expressed in transfected cells
T1 sequence (Q02108 1-690 partner): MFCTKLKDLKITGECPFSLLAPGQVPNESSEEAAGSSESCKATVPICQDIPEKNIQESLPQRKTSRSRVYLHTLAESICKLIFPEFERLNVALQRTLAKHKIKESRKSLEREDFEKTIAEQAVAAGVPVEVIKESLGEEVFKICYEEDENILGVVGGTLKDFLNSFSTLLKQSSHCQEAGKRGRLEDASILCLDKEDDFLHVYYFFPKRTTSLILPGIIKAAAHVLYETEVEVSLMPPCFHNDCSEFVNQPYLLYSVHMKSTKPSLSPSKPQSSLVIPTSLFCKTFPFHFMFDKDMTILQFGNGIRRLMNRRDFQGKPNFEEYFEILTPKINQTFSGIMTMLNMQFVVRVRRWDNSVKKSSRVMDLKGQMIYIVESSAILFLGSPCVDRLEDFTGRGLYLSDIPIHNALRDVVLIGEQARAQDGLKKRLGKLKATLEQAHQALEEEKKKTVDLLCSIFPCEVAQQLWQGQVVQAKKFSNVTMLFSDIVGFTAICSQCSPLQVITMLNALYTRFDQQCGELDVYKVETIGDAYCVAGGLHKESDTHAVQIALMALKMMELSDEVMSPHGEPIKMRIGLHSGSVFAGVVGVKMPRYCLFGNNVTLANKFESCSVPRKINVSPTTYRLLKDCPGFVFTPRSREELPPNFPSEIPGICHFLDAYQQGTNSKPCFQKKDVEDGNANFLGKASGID
T1 sequence (Q02153 1-619): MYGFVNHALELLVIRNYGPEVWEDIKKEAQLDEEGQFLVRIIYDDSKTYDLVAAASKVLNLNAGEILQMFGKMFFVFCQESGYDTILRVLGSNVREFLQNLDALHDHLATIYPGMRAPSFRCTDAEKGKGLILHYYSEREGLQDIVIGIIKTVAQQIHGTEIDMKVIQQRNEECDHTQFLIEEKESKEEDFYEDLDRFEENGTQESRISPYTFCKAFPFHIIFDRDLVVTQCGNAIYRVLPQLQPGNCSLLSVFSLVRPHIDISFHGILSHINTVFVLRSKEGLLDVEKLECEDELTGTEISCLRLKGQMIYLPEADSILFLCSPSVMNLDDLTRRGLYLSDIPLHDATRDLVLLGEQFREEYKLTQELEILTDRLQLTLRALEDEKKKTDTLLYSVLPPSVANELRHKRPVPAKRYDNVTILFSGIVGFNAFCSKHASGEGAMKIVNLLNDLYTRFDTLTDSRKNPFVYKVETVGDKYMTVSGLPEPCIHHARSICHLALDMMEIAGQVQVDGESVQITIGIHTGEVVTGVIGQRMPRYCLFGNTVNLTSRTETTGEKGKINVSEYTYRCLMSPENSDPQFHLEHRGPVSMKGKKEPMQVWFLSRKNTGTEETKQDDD
Type: cell-based
Text: Chinese hamster ovary (CHO) cells overexpressing soluble guanylate cyclase were generated to test the effect of sGC activators in a cellular context. Human cDNAs for GUCYA3 (RefSeq: NM_000856.3) and GUCYB3 (RefSeq: NM_000857.1) were amplified by PCR from a HUVEC (Human Umbilical Vein Endothelial Cells) cDNA library and cloned into mammalian expression vectors. CHO K1 cells (ATCC CCL-61) were transfected using Lipofectamine 2000 following manufacturer's instructions and stably expressing clones were identified by antibiotic selection. CHO GUCY clone 8E10 was used for subsequent experiments.
Cells were seeded at a density of 3000 cells/well in white 384-well proxyplates (Perkin Elmer) and incubated overnight, then the medium was removed and cells were washed with assay buffer (HBSS, 0.1% BSA, 1 mM IBMX, 20 uM ODQ). sGC activators were serially diluted in DMSO, then diluted in assay buffer prior to adding to cells (10 ul/well, final DMSO concentration 0.5%). Cells were incubated with compounds for 1 h room temperature, then assayed for cGMP production using Cisbio cGMP HTRF kit (62GM2PEC) according to manufacturer's instructions.
The EC50s are calculated based on the amount of cGMP interpolated from the standard curve, using a 4-parameter sigmoidal dose-response.

Row | SMILES | pEC50
1 | Cc1cc(C2CCN(C(=O)C3CCNC3)CC2)ccc1OCc1ccsc1-c1cccc(-n2ncc(C(=O)O)c2C(F)(F)F)n1 (racemic) [Example 42, (±)-1-(6-(3-((2-Methyl-4-(1-(pyrrolidine-3-carbonyl)piperidin-4-yl)phenoxy)methyl)thiophen-2-yl)pyridin-2-yl)-5-(trifluoromethyl)-1H-pyrazole-4-carboxylic acid] | 6.21
2 | CCc1cc(OCc2cc(C)sc2-c2cccc(-n3ncc(C(=O)O)c3C(F)(F)F)n2)ccc1C1CCN(C(=O)C(O)CO)CC1 (racemic) [Example 44, (±)-1-(6-(3-((4-(1-(2,3-Ddihydroxypropanoyl)piperidin-4-yl)-3-ethylphenoxy)methyl)-5-methylthiophen-2-yl)pyridin-2-yl)-5-(trifluoromethyl)-1H-pyrazole-4-carboxylic acid] | 6.89
3 | CCC(=O)N1CCC(c2ccc(OCc3ccsc3-c3cccc(-n4ncc(C(=O)O)c4C(F)(F)F)n3)cc2)CC1 [Example 1, 1-(6-(3-((4-(1-Propionylpiperidin-4-yl)phenoxy)methyl)thiophen-2-yl)pyridin-2-yl)-5-(trifluoromethyl)-1H-pyrazole-4-carboxylic acid] | 7.62
4 | CCC(=O)N1CCC(c2ccc(OCc3c(C(F)(F)F)csc3-c3cccc(-n4ncc(C(=O)O)c4C(F)(F)F)n3)cc2)CC1 [Example 2-1, 1-(6-(3-((4-(1-Propionylpiperidin-4-yl)phenoxy)methyl)-4-(trifluoromethyl)thiophen-2-yl)pyridin-2-yl)-5-(trifluoromethyl)-1H-pyrazole-4-carboxylic acid] | 8.55
5 | COC(=O)N1CCC(c2ccc(OCc3ccsc3-c3cccc(-n4ncc(C(=O)O)c4C(F)(F)F)n3)cc2)CC1 [Example 2-2, 1-(6-(3-((4-(1-(Methoxycarbonyl)piperidin-4-yl)phenoxy)methyl)thiophen-2-yl)pyridin-2-yl)-5-(trifluoromethyl)-1H-pyrazole-4-carboxylic acid] | 7.49
6 | O=C(O)c1cnn(-c2cccc(-c3sccc3COc3ccc(C4CCN(C(=O)C5CC5)CC4)cc3)n2)c1C(F)(F)F [Example 2-3, 1-(6-(3-((4-(1-(Cyclopropanecarbonyl)piperidin-4-yl)phenoxy)methyl)thiophen-2-yl)pyridin-2-yl)-5-(trifluoromethyl)-1H-pyrazole-4-carboxylic acid] | 8.55
7 | CCC(=O)N1CCC(c2ccc(OCc3c(C(F)(F)F)csc3-c3cccc(-n4ncc(C(=O)O)c4C(F)(F)F)n3)c(C)c2)CC1 [Example 2-4, 1-(6-(3-((2-Methyl-4-(1-propionylpiperidin-4-yl)phenoxy)methyl)-4-(trifluoromethyl)thiophen-2-yl)pyridin-2-yl)-5-(trifluoromethyl)-1H-pyrazole-4-carboxylic acid] | ≥ 9.30
8 | CCC(=O)N1CCC(c2ccc(OCc3ccsc3-c3cccc(-n4ncc(C(=O)O)c4C(F)(F)F)n3)c(C)c2)CC1 [Example 2-5, 1-(6-(3-((2-Methyl-4-(1-propionylpiperidin-4-yl)phenoxy)methyl)thiophen-2-yl)pyridin-2-yl)-5-(trifluoromethyl)-1H-pyrazole-4-carboxylic acid] | 8.26
9 | COC(=O)N1CCC(c2ccc(OCc3cc(C)sc3-c3cccc(-n4ncc(C(=O)O)c4C(F)(F)F)n3)c(C)c2)CC1 [Example 3, 1-(6-(3-((4-(1-(Methoxycarbonyl)piperidin-4-yl)-2-methylphenoxy)methyl)-5-methylthiophen-2-yl)pyridin-2-yl)-5-(trifluoromethyl)-1H-pyrazole-4-carboxylic acid] | 8.85
10 | Cc1cc(COc2ccc(C3CCN(C(=O)C4CC4)CC3)cc2C)c(-c2cccc(-n3ncc(C(=O)O)c3C(F)(F)F)n2)s1 [Example 5, 1-(6-(3-((4-(1-(Cyclopropanecarbonyl)piperidin-4-yl)-2-methylphenoxy)methyl)-5-methylthiophen-2-yl)pyridin-2-yl)-5-(trifluoromethyl)-1H-pyrazole-4-carboxylic acid] | ≥ 9.30

Now from value to compound:

Row | pEC50 | SMILES
11 | 8.16 | Cc1cc(C2CCN(C(=O)C3CCOC3)CC2)ccc1OCc1ccsc1-c1cccc(-n2ncc(C(=O)O)c2C(F)(F)F)n1 (racemic) [Example 12-3, (±)-1-(6-(3-((2-Methyl-4-(1-(tetrahydrofuran-3-carbonyl)piperidin-4-yl)phenoxy)methyl)thiophen-2-yl)pyridin-2-yl)-5-(trifluoromethyl)-1H-pyrazole-4-carboxylic acid]
12 | 7.32 | Cc1cc(C2CCN(C(=O)C3COC(C)(C)O3)CC2)ccc1OCc1ccsc1-c1cccc(-n2ncc(C(=O)O)c2C(F)(F)F)n1 (racemic) [Example 12-6, (±)-1-(6-(3-((4-(1-(2,2-Dimethyl-1,3-dioxolane-4-carbonyl)piperidin-4-yl)-2-methylphenoxy)methyl)thiophen-2-yl)pyridin-2-yl)-5-(trifluoromethyl)-1H-pyrazole-4-carboxylic acid]
13 | 6.80 | Cc1cc(COc2ccc(C3CCN(C(=O)C4CC4)CC3O)cc2)c(-c2cccc(-n3ncc(C(=O)O)c3C(F)(F)F)n2)s1 (racemic) [Example 35-11, (±)-trans-1-(6-(3-((4-(1-(Cyclopropanecarbonyl)-3-hydroxypiperidin-4-yl)phenoxy)methyl)-5-methylthiophen-2-yl)pyridin-2-yl)-5-(trifluoromethyl)-1H-pyrazole-4-carboxylic acid]
14 | 7.04 | Cc1cc(COc2ccc([C@@H]3CCN(C(=O)C4CC4)C[C@H]3O)cc2)c(-c2cccc(-n3ncc(C(=O)O)c3C(F)(F)F)n2)s1 (single isomer, unassigned) [Example 35-6, (+)-trans-1-(6-(3-((4-((3,4)-1-(cyclopropanecarbonyl)-3-hydroxypiperidin-4-yl)phenoxy)methyl)-5-methylthiophen-2-yl)pyridin-2-yl)-5-(trifluoromethyl)-1H-pyrazole-4-carboxylic acid]
15 | 8.70 | CCC(=O)N1CCC(c2cc(C)c(OCc3ccsc3-c3cccc(-n4ncc(C(=O)O)c4C(F)(F)F)n3)c(C)c2)CC1 [Example 4-1]
16 | 8.52 | CCC(=O)N1CCC(c2ccc(OCc3cc(C)sc3-c3cccc(-n4ncc(C(=O)O)c4C(F)(F)F)n3)cc2)CC1 [Example 4-2, 1-(6-(5-Methyl-3-((4-(1-propionylpiperidin-4-yl)phenoxy)methyl)thiophen-2-yl)pyridin-2-yl)-5-(trifluoromethyl)-1H-pyrazole-4-carboxylic acid]
17 | 8.26 | CCc1cc(COc2ccc(C3CCN(C(=O)OC)CC3)cc2C)c(-c2cccc(-n3ncc(C(=O)O)c3C(F)(F)F)n2)s1 [Example 4-3, 1-(6-(5-Ethyl-3-((4-(1-(methoxycarbonyl)piperidin-4-yl)-2-methylphenoxy)methyl)thiophen-2-yl)pyridin-2-yl)-5-(trifluoromethyl)-1H-pyrazole-4-carboxylic acid]
18 | ≥ 9.30 | Cc1cc(C2CCN(C(=O)C3CC3)CC2)ccc1OCc1c(C)csc1-c1cccc(-n2ncc(C(=O)O)c2C(F)(F)F)n1 [Example 4-4, 1-(6-(3-((4-(1-(Cyclopropanecarbonyl)piperidin-4-yl)-2-methylphenoxy)methyl)-4-methylthiophen-2-yl)pyridin-2-yl)-5-(trifluoromethyl)-1H-pyrazole-4-carboxylic acid]

Source: patent US9765067B2, “Thiophen-2-yl-pyridin-2-yl-1H-pyrazole-4-carboxylic acid derivatives and the use thereof as soluble guanylate cyclase activators” (Novartis AG, priority 2014, dated 2017)
